Values joined by “and” are separate entries in the source; they are usually repeats but may differ in a detail not shown here. Equal values may be shown once. Inconclusive results and toxic doses are left out. Rule for the calls: active = survival T/C of 150% or more; inactive = T/C below 125% in these data.
System: P388 leukemia ip, CD2F1 mice, survival T/C
Assay: NCI In Vivo Anticancer Drug Screen. Data for tumor model P388 Leukemia (intraperitoneal) in CD2F1 (CDF1) mice
Conditions: endpoint: median survival time, higher = longer survival
Method in brief: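 Mice carrying the transplanted tumor received test compound or vehicle. Survival was recorded in each group, and the value is the treated-group measurement divided by that of the vehicle-treated control group.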

[1] = dose: 25.0 mg/kg/injection, schedule: Q01DX009 (ip), vehicle: saline with Tween-80
[2] = dose: 50.0 mg/kg/injection, schedule: Q01DX009 (ip), vehicle: saline with Tween-80
[3] = dose: 100.0 mg/kg/injection, schedule: Q01DX009 (ip), vehicle: Klucel (hydroxypropylcellulose) (HPC)
[4] = dose: 100.0 mg/kg/injection, schedule: Q01DX009 (ip), vehicle: saline with Tween-80
[5] = dose: 200.0 mg/kg/injection, schedule: Q01DX009 (ip), vehicle: Klucel (hydroxypropylcellulose) (HPC)
[6] = dose: 200.0 mg/kg/injection, schedule: Q01DX009 (ip), vehicle: saline with Tween-80
[7] = dose: 400.0 mg/kg/injection, schedule: Q01DX009 (ip), vehicle: Klucel (hydroxypropylcellulose) (HPC)
[8] = dose: 100.0 mg/kg/injection, schedule: Q04DX002 (ip), vehicle: saline
[9] = dose: 12.5 mg/kg/injection, schedule: Q01DX009 (ip), vehicle: saline
[10] = dose: 50.0 mg/kg/injection, schedule: Q01DX009 (ip), vehicle: Klucel (hydroxypropylcellulose) (HPC)
[11] = dose: 100.0 mg/kg/injection, schedule: Q04DX003 (ip), vehicle: saline
[12] = dose: 200.0 mg/kg/injection, schedule: Q04DX003 (ip), vehicle: saline
[13] = dose: 400.0 mg/kg/injection, schedule: Q04DX003 (ip), vehicle: saline
[14] = dose: 100.0 mg/kg/injection, schedule: Q04DX003 (ip), vehicle: saline with Tween-80
[15] = dose: 50.0 mg/kg/injection, schedule: Q01DX005 (ip), vehicle: Klucel (hydroxypropylcellulose) (HPC)
[16] = dose: 100.0 mg/kg/injection, schedule: Q01DX005 (ip), vehicle: Klucel (hydroxypropylcellulose) (HPC)
[17] = dose: 200.0 mg/kg/injection, schedule: Q01DX005 (ip), vehicle: Klucel (hydroxypropylcellulose) (HPC)

Measured: T/C

CC(=O)NC(CC(C)C)C(=O)O (stereo unspecified)
inactive: [1] 95 % of control | [2] 86 % of control and 94 % of control | [3] 104 % of control | [4] 100 % of control and 105 % of control | [5] 114 % of control | [6] 118 % of control | [7] 100 % of control | dose: 400.0 mg/kg/injection, schedule: Q01DX009 (ip), vehicle: saline with Tween-80 105 % of control

C[n+]1cccc(/C=N/O)c1
inactive: [8] 100 % of control | dose: 200.0 mg/kg/injection, schedule: Q04DX002 (ip), vehicle: saline 100 % of control

CC(=O)OC(C)C(C)[N+](C)(C)C (stereo unspecified)
inactive: [8] 94 % of control

c1ccc(OCCC[P+](c2ccccc2)(c2ccccc2)c2ccccc2)cc1
inactive: dose: 0.7 mg/kg/injection, schedule: Q01DX010 (ip), vehicle: carboxymethylcellulose (CMC) 120 % of control | dose: 1.5 mg/kg/injection, schedule: Q01DX010 (ip), vehicle: carboxymethylcellulose (CMC) 110 % of control | dose: 3.0 mg/kg/injection, schedule: Q01DX010 (ip), vehicle: carboxymethylcellulose (CMC) 120 % of control | dose: 4.1 mg/kg/injection, schedule: Q01DX009 (ip), vehicle: saline sonified 113 % of control | dose: 6.25 mg/kg/injection, schedule: Q01DX009 (ip), vehicle: saline sonified 118 % of control

CCCCCCCCC[N+]1([O-])CCCCCC1
inactive: [9] 100 % of control | dose: 25.0 mg/kg/injection, schedule: Q01DX009 (ip), vehicle: saline 99 % of control | dose: 50.0 mg/kg/injection, schedule: Q01DX009 (ip), vehicle: saline 105 % of control and 107 % of control

CC(O)C(N=C1N=CNC2=NC=NC12)C(=O)O (stereo unspecified)
inactive: dose: 50.0 mg/kg/injection, schedule: Q01DX005 (ip), vehicle: saline with Tween-80 100 % of control | dose: 100.0 mg/kg/injection, schedule: Q01DX005 (ip), vehicle: saline with Tween-80 96 % of control | dose: 200.0 mg/kg/injection, schedule: Q01DX005 (ip), vehicle: saline with Tween-80 95 % of control

C(CCOCC1CO1)COCC1CO1 (stereo unspecified)
inactive: dose: 25.0 mg/kg/injection, schedule: Q01DX009 (ip), vehicle: Klucel (hydroxypropylcellulose) (HPC) 108 % of control and 111 % of control | [10] 110 % of control | [3] 117 % of control

CCOC(=O)/C=C/C(=O)O.CCOC(=O)/C=C/C(=O)O.[Mn].[NH-]CC(=O)O
inactive: [11] 96 % of control | [12] 96 % of control | [13] 98 % of control

C[N+](C)(C)CCOS(C)(=O)=O
inactive: dose: 1.56 mg/kg/injection, schedule: Q01DX009 (ip), vehicle: Klucel (hydroxypropylcellulose) (HPC) 90 % of control and 93 % of control | dose: 1.56 mg/kg/injection, schedule: Q01DX009 (ip), vehicle: saline 101 % of control | dose: 3.13 mg/kg/injection, schedule: Q01DX009 (ip), vehicle: Klucel (hydroxypropylcellulose) (HPC) 99 % of control | dose: 3.13 mg/kg/injection, schedule: Q01DX009 (ip), vehicle: saline 111 % of control and 95 % of control | dose: 6.25 mg/kg/injection, schedule: Q01DX009 (ip), vehicle: Klucel (hydroxypropylcellulose) (HPC) 89 % of control (2×) and 94 % of control | dose: 6.25 mg/kg/injection, schedule: Q01DX009 (ip), vehicle: saline 90 % of control | [9] 92 % of control

CCOC(=O)C(NC(C)=O)(C(=O)OCC)c1ccc(N)cn1
inactive: [11] 99 % of control | [12] 103 % of control | [13] 98 % of control

CC(=O)N1c2ccccc2Sc2cc(C(O)(C(F)(F)F)C(F)(F)F)ccc21
inactive: dose: 25.0 mg/kg/injection, schedule: Q04DX003 (ip), vehicle: saline with Tween-80 95 % of control | dose: 50.0 mg/kg/injection, schedule: Q04DX003 (ip), vehicle: saline with Tween-80 100 % of control | [14] 100 % of control

O=C(O)CCN1c2ccccc2Sc2ccccc21
inactive: [10] 89 % of control | [3] 100 % of control | [5] 99 % of control | [7] 101 % of control

CC1CC[N-]CC1.CC1CC[N-]CC1.CC1CC[N-]CC1.CC1CC[N-]CC1.[Cl][Rh][Cl]
inactive: [1] 104 % of control | [2] 104 % of control

CCSC(=NC)Nc1ccc(Oc2ccc(Cl)cc2)cc1
inactive: dose: 12.5 mg/kg/injection, schedule: Q01DX005 (ip), vehicle: Klucel (hydroxypropylcellulose) (HPC) 101 % of control and 102 % of control | dose: 25.0 mg/kg/injection, schedule: Q01DX005 (ip), vehicle: Klucel (hydroxypropylcellulose) (HPC) 105 % of control and 106 % of control | [15] 102 % of control and 109 % of control and 123 % of control | [16] 100 % of control and 106 % of control and 107 % of control

COc1ccc2c(c1OC)C(=O)OC2
inactive: [15] 90 % of control | [16] 90 % of control | [17] 90 % of control

O=C1CCC(N2C(=O)CC3(CCCC3)C2=O)C(=O)N1c1ccc([N+](=O)[O-])cc1 (stereo unspecified)
inactive: [2] 106 % of control | [4] 109 % of control | [6] 99 % of control

CCN(CC)c1ccc(/C=N/Nc2c3c(nc4ccccc24)CCCC3)cc1
inactive: dose: 6.25 mg/kg/injection, schedule: Q01DX005 (ip), vehicle: saline 100 % of control | dose: 12.5 mg/kg/injection, schedule: Q01DX005 (ip), vehicle: saline 99 % of control

CCn1c(Cl)c(/C=N/Nc2ccccc2[N+](=O)[O-])c2cccc(/C=N\Nc3ccccc3[N+](=O)[O-])c21
inactive: dose: 100.0 mg/kg/injection, schedule: Q01DX001 (ip), vehicle: Klucel (hydroxypropylcellulose) (HPC) 91 % of control | dose: 200.0 mg/kg/injection, schedule: Q01DX001 (ip), vehicle: Klucel (hydroxypropylcellulose) (HPC) 90 % of control | dose: 400.0 mg/kg/injection, schedule: Q01DX001 (ip), vehicle: Klucel (hydroxypropylcellulose) (HPC) 87 % of control

COc1cccc(/C=N/N(C)c2c([N+](=O)[O-])cc(C(F)(F)F)cc2[N+](=O)[O-])c1O
inactive: dose: 60.0 mg/kg/injection, schedule: Q01DX005 (ip), vehicle: Klucel (hydroxypropylcellulose) (HPC) 93 % of control | dose: 120.0 mg/kg/injection, schedule: Q01DX005 (ip), vehicle: Klucel (hydroxypropylcellulose) (HPC) 92 % of control | dose: 240.0 mg/kg/injection, schedule: Q01DX005 (ip), vehicle: Klucel (hydroxypropylcellulose) (HPC) 87 % of control

Cc1cc(O)c2c(c1O)C(=O)c1cc(O)cc(O)c1C2=O
inactive: dose: 6.25 mg/kg/injection, schedule: Q01DX005 (ip), vehicle: saline + alcohol 104 % of control | dose: 12.5 mg/kg/injection, schedule: Q01DX005 (ip), vehicle: saline + alcohol 101 % of control | dose: 25.0 mg/kg/injection, schedule: Q01DX005 (ip), vehicle: saline + alcohol 99 % of control

COc1ccc(/C=C/C2=C(C(=O)O)CCCO2)cc1
inactive: dose: 100.0 mg/kg/injection, schedule: Q04DX002 (ip), vehicle: saline with Tween-80 103 % of control | dose: 200.0 mg/kg/injection, schedule: Q04DX002 (ip), vehicle: saline with Tween-80 100 % of control | dose: 400.0 mg/kg/injection, schedule: Q04DX002 (ip), vehicle: saline with Tween-80 90 % of control

Cc1cc(O)c(C(C)C)cc1S(=O)(=O)O (tested in a mixture with another compound)
inactive: [14] 100 % of control | dose: 200.0 mg/kg/injection, schedule: Q04DX003 (ip), vehicle: saline with Tween-80 95 % of control and 108 % of control | dose: 400.0 mg/kg/injection, schedule: Q04DX003 (ip), vehicle: saline with Tween-80 108 % of control

CCC1(CC)C(=O)ON(C(C)(C)N2OC(=O)C(CC)(CC)C2=O)C1=O
inactive: [15] 102 % of control | [16] 104 % of control | [17] 96 % of control

CCCOCC(O)CNCCN (stereo unspecified)
inactive: [10] 100 % of control | [3] 102 % of control | [5] 109 % of control

CN(C)CCN(C)CCC(=O)/C=C/c1ccccc1
inactive: dose: 12.5 mg/kg/injection, schedule: Q01DX001 (ip), vehicle: saline 94 % of control | dose: 25.0 mg/kg/injection, schedule: Q01DX001 (ip), vehicle: saline 101 % of control | dose: 50.0 mg/kg/injection, schedule: Q01DX001 (ip), vehicle: saline 111 % of control

O=C(NCCCl)Nc1[nH]c(=O)ncc1Br
inactive: dose: 60.0 mg/kg/injection, schedule: Q01DX005 (ip), vehicle: saline with Tween-80 104 % of control | dose: 120.0 mg/kg/injection, schedule: Q01DX005 (ip), vehicle: saline with Tween-80 102 % of control | dose: 240.0 mg/kg/injection, schedule: Q01DX005 (ip), vehicle: saline with Tween-80 112 % of control

— PubChem BioAssay AID330 (DTP/NCI, 2004)
